In ChEMBL document CHEMBL1201862, “PubChem BioAssay data set” (2004):
Calls of active or inactive are those of the source.

What was measured:
[1] = biological target: T1, RNA-binding protein pos-1 (Caenorhabditis elegans, UniProt G5EF15); assay: inhibitors of POS-1/mex-3 RNA binding, dose response, biochemical, fluorescence polarization (AID 1964);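 note: purified POS-1 fused to maltose binding protein made in E. coli; potency of compounds blocking POS-1 binding to fluorescent RNA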
T1 sequence (G5EF15 whole entry): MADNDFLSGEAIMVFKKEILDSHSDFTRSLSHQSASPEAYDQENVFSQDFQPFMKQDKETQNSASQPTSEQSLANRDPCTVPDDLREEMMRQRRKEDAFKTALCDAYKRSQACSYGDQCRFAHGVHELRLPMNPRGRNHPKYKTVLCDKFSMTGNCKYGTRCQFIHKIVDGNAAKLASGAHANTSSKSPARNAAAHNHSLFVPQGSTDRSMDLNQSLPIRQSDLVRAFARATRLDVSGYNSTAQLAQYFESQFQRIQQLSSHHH

[2] = biological target: T2, Zinc finger protein mex-5 (Caenorhabditis elegans, UniProt Q9XUB2); assay: MEX-5/TCR-2 RNA interaction inhibitors, dose response, biochemical, C. elegans, fluorescence polarization (AID 1960)
T2 sequence (Q9XUB2 whole entry): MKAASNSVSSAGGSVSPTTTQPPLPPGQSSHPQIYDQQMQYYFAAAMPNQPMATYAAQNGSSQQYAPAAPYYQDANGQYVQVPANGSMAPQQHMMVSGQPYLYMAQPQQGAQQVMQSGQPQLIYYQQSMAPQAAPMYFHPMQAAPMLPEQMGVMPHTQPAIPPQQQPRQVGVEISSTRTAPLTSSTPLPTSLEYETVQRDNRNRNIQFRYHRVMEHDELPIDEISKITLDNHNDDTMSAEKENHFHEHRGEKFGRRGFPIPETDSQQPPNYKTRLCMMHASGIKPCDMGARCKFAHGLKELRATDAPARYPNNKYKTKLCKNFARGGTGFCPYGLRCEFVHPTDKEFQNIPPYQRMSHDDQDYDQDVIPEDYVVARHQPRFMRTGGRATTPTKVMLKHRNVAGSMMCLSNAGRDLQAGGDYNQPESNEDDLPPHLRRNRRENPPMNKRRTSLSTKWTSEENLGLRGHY

[3] = biological target: Cytochrome P450 3A4 (Homo sapiens, UniProt P08684); details: Potency;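 note: confirmatory qHTS run detecting inhibitors and substrates of CYP3A4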
Cytochrome P450 3A4, sequence (P08684 whole entry): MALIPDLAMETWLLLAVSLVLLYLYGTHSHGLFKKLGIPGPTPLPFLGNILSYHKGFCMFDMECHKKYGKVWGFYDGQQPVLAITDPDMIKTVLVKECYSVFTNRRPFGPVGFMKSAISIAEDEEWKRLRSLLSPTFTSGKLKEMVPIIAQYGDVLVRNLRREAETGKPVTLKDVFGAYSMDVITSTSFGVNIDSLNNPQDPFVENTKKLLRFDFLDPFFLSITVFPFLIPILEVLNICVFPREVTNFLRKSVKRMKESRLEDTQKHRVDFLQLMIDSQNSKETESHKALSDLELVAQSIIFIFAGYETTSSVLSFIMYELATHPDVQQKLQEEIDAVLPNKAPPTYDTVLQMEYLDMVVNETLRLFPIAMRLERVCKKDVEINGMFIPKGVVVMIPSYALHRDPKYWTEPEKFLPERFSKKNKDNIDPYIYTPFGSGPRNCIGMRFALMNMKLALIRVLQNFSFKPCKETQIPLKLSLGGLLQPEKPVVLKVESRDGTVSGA

[4] = biological target: T3, Rac GTPase-activating protein 1 (Homo sapiens, UniProt Q9H0H5); assay: MgcRacGAP GTPase-activating activity inhibitors, confirmation, biochemical, ADP Hunter fluorescence, primary and confirmatory (AID 624330); format: functional
T3 sequence (Q9H0H5 whole entry): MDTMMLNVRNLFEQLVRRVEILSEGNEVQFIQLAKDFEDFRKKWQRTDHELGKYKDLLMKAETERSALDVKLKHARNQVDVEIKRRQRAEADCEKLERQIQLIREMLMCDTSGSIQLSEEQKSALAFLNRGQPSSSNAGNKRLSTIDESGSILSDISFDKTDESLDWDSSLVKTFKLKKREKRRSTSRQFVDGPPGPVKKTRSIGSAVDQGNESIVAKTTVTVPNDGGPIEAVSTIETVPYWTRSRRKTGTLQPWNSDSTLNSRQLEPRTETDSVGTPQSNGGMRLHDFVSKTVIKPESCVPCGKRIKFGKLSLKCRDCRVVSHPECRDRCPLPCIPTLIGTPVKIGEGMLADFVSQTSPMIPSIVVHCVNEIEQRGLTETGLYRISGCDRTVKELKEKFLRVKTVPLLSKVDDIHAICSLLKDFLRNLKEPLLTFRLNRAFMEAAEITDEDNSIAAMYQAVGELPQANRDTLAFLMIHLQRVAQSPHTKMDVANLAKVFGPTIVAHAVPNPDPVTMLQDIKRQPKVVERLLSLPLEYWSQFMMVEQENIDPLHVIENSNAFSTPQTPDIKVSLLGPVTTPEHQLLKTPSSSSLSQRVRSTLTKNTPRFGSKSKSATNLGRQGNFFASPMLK

[5] = HEp-2 cell cytotoxicity, dose response, cytotoxicity control for RSV inhibitor project, HTS (AID 2410); format: functional; details: human respiratory syncytial virus
[6] = biological target: T4, Calpain-2 catalytic subunit (Sus scrofa, UniProt P43367); assay: pig calpain II inhibitor potency, dose response, biochemical, fluorogenic peptide substrate (AID 1420); format: functional
T4 sequence (P43367 whole entry): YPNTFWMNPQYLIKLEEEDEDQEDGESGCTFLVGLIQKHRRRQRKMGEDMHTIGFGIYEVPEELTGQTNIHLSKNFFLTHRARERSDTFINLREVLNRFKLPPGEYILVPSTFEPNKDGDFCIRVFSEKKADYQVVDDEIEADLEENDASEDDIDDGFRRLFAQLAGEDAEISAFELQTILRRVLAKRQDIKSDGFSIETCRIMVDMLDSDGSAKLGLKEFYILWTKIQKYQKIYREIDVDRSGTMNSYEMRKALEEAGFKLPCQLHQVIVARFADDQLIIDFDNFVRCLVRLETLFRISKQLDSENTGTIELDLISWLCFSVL

[7] = biological target: T5, Leucine aminopeptidase (Plasmodium falciparum 3D7, UniProt Q8IL11); assay: P. falciparum M17LAP inhibitors, primary screen, biochemical, fluorogenic H-Leu-NHMec substrate, 1536-well (AID 1619); format: functional
T5 sequence (Q8IL11 whole entry): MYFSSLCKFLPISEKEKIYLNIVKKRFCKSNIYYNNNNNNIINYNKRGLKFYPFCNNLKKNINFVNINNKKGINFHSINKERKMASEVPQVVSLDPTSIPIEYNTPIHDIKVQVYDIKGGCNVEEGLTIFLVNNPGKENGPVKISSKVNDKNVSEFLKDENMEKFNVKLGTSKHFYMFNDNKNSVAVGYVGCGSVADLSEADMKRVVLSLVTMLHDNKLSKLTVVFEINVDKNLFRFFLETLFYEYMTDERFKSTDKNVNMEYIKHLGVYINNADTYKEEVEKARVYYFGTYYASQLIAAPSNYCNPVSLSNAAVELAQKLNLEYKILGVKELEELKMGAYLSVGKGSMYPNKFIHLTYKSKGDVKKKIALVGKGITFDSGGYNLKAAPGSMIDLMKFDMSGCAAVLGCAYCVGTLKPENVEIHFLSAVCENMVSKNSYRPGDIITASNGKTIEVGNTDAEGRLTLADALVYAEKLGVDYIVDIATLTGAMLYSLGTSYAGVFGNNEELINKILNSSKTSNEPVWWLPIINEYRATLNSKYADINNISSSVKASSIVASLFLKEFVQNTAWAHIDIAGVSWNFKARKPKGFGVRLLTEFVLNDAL

[8] = biological target: T6, Protein RecA (Mycobacterium tuberculosis, UniProt P9WHJ3); assay: Fluorescence Cell-Free Homogeneous Dose Retest to Identify Inhibitors of RecA-Intein Splicing Activity. [Related pubchem assays (depositor defined):AID2097, AID2223, AID489010, AID492950]; format: functional
T6 sequence (P9WHJ3 whole entry): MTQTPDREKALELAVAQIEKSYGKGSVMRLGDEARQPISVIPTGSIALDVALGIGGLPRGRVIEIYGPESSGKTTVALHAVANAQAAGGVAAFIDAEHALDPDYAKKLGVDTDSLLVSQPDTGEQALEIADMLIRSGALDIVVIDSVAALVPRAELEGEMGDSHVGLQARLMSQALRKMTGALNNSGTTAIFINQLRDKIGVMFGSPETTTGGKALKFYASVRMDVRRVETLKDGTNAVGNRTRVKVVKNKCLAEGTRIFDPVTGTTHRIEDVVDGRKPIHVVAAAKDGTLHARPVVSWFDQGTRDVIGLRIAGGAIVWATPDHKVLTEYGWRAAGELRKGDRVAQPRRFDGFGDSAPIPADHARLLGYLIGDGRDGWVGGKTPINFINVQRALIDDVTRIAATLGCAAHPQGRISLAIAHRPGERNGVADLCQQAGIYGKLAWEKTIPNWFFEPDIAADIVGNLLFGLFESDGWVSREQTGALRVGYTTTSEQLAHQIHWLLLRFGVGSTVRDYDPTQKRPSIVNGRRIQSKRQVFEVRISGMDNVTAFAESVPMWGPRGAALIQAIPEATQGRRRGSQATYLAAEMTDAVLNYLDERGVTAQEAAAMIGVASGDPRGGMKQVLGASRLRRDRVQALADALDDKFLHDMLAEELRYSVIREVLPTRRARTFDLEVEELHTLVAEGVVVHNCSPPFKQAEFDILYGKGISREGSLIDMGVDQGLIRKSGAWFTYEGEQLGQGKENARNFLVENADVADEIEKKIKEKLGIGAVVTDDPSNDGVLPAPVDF

[9] = biological target: T7, Replicative DNA helicase DnaB (Mycobacterium tuberculosis, UniProt P9WMR3); assay: DnaB intein splicing inhibitors, dose response, biochemical, cell-free fluorescence (AID 449749); format: functional
T7 sequence (P9WMR3 whole entry): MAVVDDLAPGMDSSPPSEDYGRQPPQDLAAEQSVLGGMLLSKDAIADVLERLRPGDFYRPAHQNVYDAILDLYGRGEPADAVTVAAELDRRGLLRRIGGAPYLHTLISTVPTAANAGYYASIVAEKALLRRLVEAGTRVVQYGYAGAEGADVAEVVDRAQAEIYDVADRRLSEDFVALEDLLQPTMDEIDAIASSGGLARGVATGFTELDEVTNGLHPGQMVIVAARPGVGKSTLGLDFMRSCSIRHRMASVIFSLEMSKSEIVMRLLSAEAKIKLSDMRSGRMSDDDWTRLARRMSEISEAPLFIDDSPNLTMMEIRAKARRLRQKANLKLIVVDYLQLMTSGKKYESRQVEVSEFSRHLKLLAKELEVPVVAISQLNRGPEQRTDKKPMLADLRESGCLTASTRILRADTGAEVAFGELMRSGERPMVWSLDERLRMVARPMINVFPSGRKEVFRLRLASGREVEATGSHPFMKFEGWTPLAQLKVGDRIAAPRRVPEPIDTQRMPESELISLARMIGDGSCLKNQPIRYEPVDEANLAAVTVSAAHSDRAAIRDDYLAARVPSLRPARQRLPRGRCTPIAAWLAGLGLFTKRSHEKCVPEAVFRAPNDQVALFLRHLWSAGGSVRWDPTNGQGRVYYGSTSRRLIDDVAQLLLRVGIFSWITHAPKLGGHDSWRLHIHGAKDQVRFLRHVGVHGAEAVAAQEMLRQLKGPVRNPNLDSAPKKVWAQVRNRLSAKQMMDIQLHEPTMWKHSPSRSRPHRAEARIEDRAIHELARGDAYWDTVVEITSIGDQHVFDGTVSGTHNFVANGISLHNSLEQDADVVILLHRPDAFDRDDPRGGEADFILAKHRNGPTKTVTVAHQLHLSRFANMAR

SMILES | EC50 [1] | EC50 [2] | AC50 [3] | other results
COCc1cc(O)n2nc(-c3cccs3)cc2n1 | > 300 µM (not active) | > 300 µM (not active) |  | 
CC(C)c1c(O)ccc2c1CCC1[C@@](C)(C=O)CCC[C@@]21C (some centres undefined) |  |  | 31.6 µM (inconclusive) | 
COc1cc(/C=N/NP(=S)(c2ccccc2)c2ccccc2)ccc1O |  |  |  | IC50 [4]: 109 µM (active); CC50 [5]: 30.3 µM (active); IC50 [6]: 14.2 µM (not active)
N#Cc1ccc(C23CC4(C2)[C@H](CN(CC2CCCCC2)[C@@H]4c2ccccc2)C3c2ccc(Cl)nc2)cc1 (some centres undefined) |  |  | 15.8 µM (inconclusive) | 
CCN1C(C)=C(C(=O)OC)C(c2ccccc2)N2C(=O)[C@](O)(C(=O)OC)C(c3ccccc3)C(C(C)=O)=C12 (some centres undefined) |  |  | 3.98 µM (inconclusive) | 
COc1ccc2c(c1OC)C(=O)OC2Nc1nc(-c2cc3ccccc3oc2=O)cs1 (centres undefined) |  |  |  | IC50 [7]: 5.03 µM (active)
CC(=O)c1c(O)c(C)c(O)c2c1OC1=CC(=O)C(C(C)=O)C(=O)C12C (centres undefined) |  |  | 0.159 µM (inconclusive) | 
CN1C(=O)C(=Cc2cn(CC(=O)N3CCCCC3)c3ccccc23)C(=O)N(C)C1=O | > 300 µM (not active) | > 300 µM (not active) |  | 
COC(=O)CCCCCN1C(=O)NC(CC2CC2)C(C(=O)OCc2ccccc2)=C1C (centres undefined) |  |  | 20 µM (inconclusive) | 
Cc1ccc(C2c3sc(=O)[nH]c3SC3C(=O)NC(=O)C32)cc1 (centres undefined) | > 300 µM (inconclusive) | 6.53 µM (inconclusive) |  | 
Nc1n[nH]c(N)c1N=Nc1ccc(Cl)cc1 |  |  |  | IC50 [7]: 12.5 µM (active)
O=C(O)Cn1cc(/C=C2\C(=O)NC(=O)N(c3ccc(F)cc3)C2=O)c2ccccc21 | 9.27 µM (active) | 8.21 µM (active) |  | 
Cc1ccccc1NS(=O)(=O)c1cc(C(=O)N2CCCC2)ccc1C | > 300 µM (not active) | > 300 µM (not active) |  | 
O=C(CSc1nnc(-c2ccc(NS(=O)(=O)c3ccccc3)cc2)o1)NCC1CCCO1 (centres undefined) |  |  |  | IC50 [7]: 6.04 µM (active)
O=C1c2c(O)cc(O)cc2OC(c2ccc(O)c(O)c2)C1O (centres undefined) [TAXIFOLIN] |  |  | 25.1 µM (inconclusive) | 
C=CCN1C(=O)NC(=O)/C(=C/c2ccc(OCC(=O)Nc3ccc(C)cc3)cc2)C1=O | > 300 µM (not active) | > 300 µM (not active) |  | 
CCn1c(SCC(=O)Nc2cc(C)on2)nnc1-c1ccc(OC)cc1 | > 300 µM (not active) | > 300 µM (not active) |  | 
CCOC(=O)C1Nc2c(F)cc(C)cc2C2c3ccccc3CC12 (centres undefined) |  |  |  | CC50 [5]: 31.9 µM (active); EC50 [8]: 36 µM (active); AC50 [9]: 11.4 µM (active)
